Our source for the IC50 values is US20080207705A1, “Heteroaryl-Imidazole Derivatives as Cannabinoid CB1 Receptor Antagonists” (Green Cross Corporation, priority 2007, published 2008).

For the first experiment, the target named is T1, rat CB-1 receptor (Rattus norvegicus, UniProt P20272).
T1 construct: The tissue obtained from the brain of SD rats was homogenized; from tissue; host or cells: brain of SD rats (membrane pellet of homogenate)
T1 sequence (P20272 whole entry): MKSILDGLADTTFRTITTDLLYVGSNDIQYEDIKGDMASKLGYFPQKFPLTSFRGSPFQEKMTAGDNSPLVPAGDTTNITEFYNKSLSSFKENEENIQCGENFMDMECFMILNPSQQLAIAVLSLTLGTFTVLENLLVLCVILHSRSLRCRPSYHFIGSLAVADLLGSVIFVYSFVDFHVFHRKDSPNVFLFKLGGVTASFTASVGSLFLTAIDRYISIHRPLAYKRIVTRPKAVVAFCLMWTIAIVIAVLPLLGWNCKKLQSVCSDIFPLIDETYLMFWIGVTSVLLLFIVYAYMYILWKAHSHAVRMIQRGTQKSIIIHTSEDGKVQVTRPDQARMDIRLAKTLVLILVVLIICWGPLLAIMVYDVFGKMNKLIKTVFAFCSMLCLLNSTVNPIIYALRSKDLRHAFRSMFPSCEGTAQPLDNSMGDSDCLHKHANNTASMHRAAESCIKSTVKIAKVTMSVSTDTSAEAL
The experiment can be described thus: rat CB-1 receptor binding protocol with [3H]CP-55940.
Settings: not given
In the case of `CC(C)(C)c1nnc(-c2nc(-c3ccccc3Cl)n(-c3ccc(Br)cc3)c2Cn2cncn2)s1` [Example 168, 2-(5-((1H-1,2,4-Triazol-1-yl)methyl)-1-(4-bromophenyl)-2-(2-chlorophenyl)-1H-imidazol-4-yl)-5-tert-butyl-1,3,4-thiadiazole], the IC50 – broadly, the midpoint of a concentration-inhibition curve – came to 0.00401 µM. `CCc1c(-c2nnc(C3(c4ccc(Cl)cc4Cl)CC3)o2)nc(-c2ccc(Cl)cc2Cl)n1-c1ccc(Br)cc1` [Example 44, 2-(1-(4-Bromophenyl)-2-(2,4-dichlorophenyl)-5-ethyl-1H-imidazol-4-yl)-5-(1-(2,4-dichlorophenyl)cyclopropyl)-1,3,4-oxadiazole] showed an IC50 of 0.00805 µM. In turn, `CCc1c(-c2nnc(C(C)(C)C)o2)nc(-c2ccc(Cl)cc2Cl)n1-c1ccc(Cl)cc1` [Example 15, 2-tert-butyl-5-(1-(4-chlorophenyl)-2-(2,4-dichlorophenyl)-5-ethyl-1H-imidazol-4-yl)-1,3,4-oxadiazole] had an IC50 of 0.0181 µM. Same read-out and setting: the figure for `CCc1c(-c2nnc(C3(C(F)(F)F)CCC3)o2)nc(-c2ccc(Cl)cc2Cl)n1-c1ccc(Br)cc1` [Example 50, 2-(1-(4-Bromophenyl)-2-(2,4-dichlorophenyl)-5-ethyl-1H-imidazol-4-yl)-5-(1-(trifluoromethyl)cyclobutyl)-1,3,4-oxadiazole] is 0.00956 µM; for `Cc1c(-c2nnc(C3CCC3)o2)nc(-c2ccc(Cl)cc2Cl)n1-c1ccc(Br)cc1` [Example 22, 2-(1-(4-Bromophenyl)-2-(2,4-dichlorophenyl)-5-methyl-1H-imidazol-4-yl)-5-cyclobutyl-1,3,4-oxadiazole] it is 0.0293 µM.

In the case of `Cc1c(-c2nnc(C3CCCCC3)o2)nc(-c2ccc(Cl)cc2Cl)n1-c1ccc(Br)cc1` [Example 19, 2-(1-(4-Bromophenyl)-2-(2,4-dichlorophenyl)-5-methyl-1H-imidazol-4-yl)-5-cyclohexyl-1,3,4-oxadiazole], the IC50 is 0.07 µM.

The molecule `Cc1c(-c2nnc(C3CCCC3)o2)nc(-c2ccc(Cl)cc2Cl)n1-c1ccc(Cl)cc1` [Example 3, 2-(1-(4-Chlorophenyl)-2-(2,4-dichlorophenyl)-5-methyl-1H-imidazol-4-yl)-5-cyclopentyl-1,3,4-oxadiazole] registered an IC50 of 0.0353 µM.

Staying with this experiment, now noted: [3H]CP-55940, brain tissue of SD rats, 30 °C for 60 min; read-out: IC50.
Regarding `CCCc1c(-c2nnc(C(C)(C)C)s2)nc(-c2ccc(Cl)cc2Cl)n1-c1ccc(Cl)cc1` [Example 125, 2-tert-Butyl-5-(1-(4-chlorophenyl)-2-(2,4-dichlorophenyl)-5-propyl-1H-imidazol-4-yl)-1,3,4-thiadiazole], the IC50 was determined as 0.00794 µM. Still for that read-out and setting: with `Cc1c(-c2ncc(C(C)(C)C)o2)nc(-c2ccc(Cl)cc2Cl)n1-c1ccc(Br)cc1` [Example 187, 2-(1-(4-Bromophenyl)-2-(2,4-dichlorophenyl)-5-methyl-1H-imidazol-4-yl)-5-tert-butyloxazole] the figure was 0.0169 µM; with `CC(C)(C)c1nnc(-c2nc(-c3ccc(Cl)cc3Cl)n(-c3ccc(Br)cc3)c2Cn2cncn2)o1` [Example 74, 2-(5-((1H-1,2,4-Triazol-1-yl)methyl)-1-(4-bromophenyl)-2-(2,4-dichlorophenyl)-1H-imidazol-4-yl)-5-tert-butyl-1,3,4-oxadiazole], 0.00521 µM; with `CCCc1c(-c2nnc(C3CCCCC3)s2)nc(-c2ccc(Cl)cc2Cl)n1-c1ccc(Cl)cc1` [Example 129, 2-(1-(4-Chlorophenyl)-2-(2,4-dichlorophenyl)-5-propyl-1H-imidazol-4-yl)-5-cyclohexyl-1,3,4-thiadiazole], 0.0515 µM. On the same count and under the same terms, the figure for `CCc1c(-c2nnc(C3(c4ccc(Cl)cc4)CC3)s2)nc(-c2ccc(Cl)cc2Cl)n1-c1ccc(Br)cc1` [Example 130, 2-(1-(4-Bromophenyl)-2-(2,4-dichlorophenyl)-5-ethyl-1H-imidazol-4-yl)-5-(1-(4-chlorophenyl)cyclopropyl)-1,3,4-thiadiazole] is 0.00453 µM.

In the case of `CCCCC(C)c1nnc(-c2nc(-c3ccc(Cl)cc3Cl)n(-c3ccc(Cl)cc3)c2CC)s1` (stereo not shown) [Example 105, 2-(1-(4-Chlorophenyl)-2-(2,4-dichlorophenyl)-5-ethyl-1H-imidazol-4-yl)-5-(hexan-2-yl)-1,3,4-thiadiazole], the half-maximal inhibitory concentration (IC50) amounted to 0.00805 µM. Same read-out and setting: with `Cc1c(-c2nnc(C(C)(C)C)o2)nc(-c2ccc(Cl)cc2Cl)n1-c1ccc(Br)cc1` [Example 20, 2-(1-(4-Bromophenyl)-2-(2,4-dichlorophenyl)-5-methyl-1H-imidazol-4-yl)-5-tert-butyl-1,3,4-oxadiazole] the figure was 0.00581 µM; with `CCCCC(C)c1nnc(-c2nc(-c3ccc(Cl)cc3Cl)n(-c3ccc(Cl)cc3)c2C)s1` (stereo not shown) [Example 95, 2-(1-(4-Chlorophenyl)-2-(2,4-dichlorophenyl)-5-methyl-1H-imidazol-4-yl)-5-(hexan-2-yl)-1,3,4-thiadiazole], 0.015 µM; with `CCc1c(-c2nnc(C(C)(C)C)o2)nc(-c2ccc(Cl)cc2Cl)n1-c1ccc(Br)cc1` [Example 21, 2-(1-(4-Bromophenyl)-2-(2,4-dichlorophenyl)-5-ethyl-1H-imidazol-4-yl)-5-tert-butyl-1,3,4-oxadiazole], 0.00315 µM. Consider `CC(C)c1c(-c2nnc(C3(c4ccccc4)CC3)o2)nc(-c2ccc(Cl)cc2Cl)n1-c1ccc(Cl)cc1` [Example 28, 2-(1-(4-Chlorophenyl)-2-(2,4-dichlorophenyl)-5-isopropyl-1H-imidazol-4-yl)-5-(1-phenylcyclopropyl)-1,3,4-oxadiazole], for which the IC50 was found to be 0.0155 µM. Regarding `CC(C)c1c(-c2nnc(C(C)(C)C)s2)nc(-c2ccc(Cl)cc2Cl)n1-c1ccc(Br)cc1` [Example 114, 2-(1-(4-Bromophenyl)-2-(2,4-dichlorophenyl)-5-isopropyl-1H-imidazo-4-yl)-5-tert-butyl-1,3,4-thiadiazole], the IC50 stood at 0.00649 µM. Turning to `Cc1c(-c2nnc(C3(C(F)(F)F)CC3)o2)nc(-c2ccccc2Cl)n1-c1ccc(Br)cc1` [Example 52, 2-(1-(4-Bromophenyl)-2-(2-chlorophenyl)-5-methyl-1H-imidazol-4-yl)-5-(1-(trifluoromethyl)cyclopropyl)-1,3,4-oxadiazole], the half-inhibitory concentration (IC50) was 0.0186 µM. As for `CCc1c(-c2nnc(C(C)CC)s2)nc(-c2ccc(Cl)cc2Cl)n1-c1ccc(Cl)cc1` (stereo not shown) [Example 107, 2-sec-Butyl-5-(1-(4-chlorophenyl)-2-(2,4-dichlorophenyl)-5-ethyl-1H-imidazol-4-yl)-1,3,4-thiadiazole], the IC50 worked out at 0.00846 µM.

`CC(C)(C)c1nnc(-c2nc(-c3ccc(Cl)cc3Cl)n(-c3ccc(Br)cc3)c2Cn2cncn2)s1` [Example 164, 2-(5-((1H-1,2,4-Triazol-1-yl)methyl)-1-(4-bromophenyl)-2-(2,4-dichlorophenyl)-1H-imidazol-4-yl)-5-tert-butyl-1,3,4-thiadiazole]: the 50% inhibitory concentration (IC50) turned out to be 0.0209 µM. On the same count and under the same terms, with `CCc1c(-c2nnc(C3(c4ccc(Cl)cc4)CC3)s2)nc(-c2ccccc2Cl)n1-c1ccc(Br)cc1` [Example 148, 2-(1-(4-Bromophenyl)-2-(2-chlorophenyl)-5-ethyl-1H-imidazol-4-yl)-5-(1-(4-chlorophenyl)cyclopropyl)-1,3,4-thiadiazole] the figure was 0.00493 µM; with `CCc1c(-c2nnc(C(C)(C)C)s2)nc(-c2ccc(Cl)cc2Cl)n1-c1ccc(Br)cc1` [Example 110, 2-(1-(4-Bromophenyl)-2-(2,4-dichlorophenyl)-5-ethyl-1H-imidazol-4-yl)-5-tert-butyl-1,3,4-thiadiazole], 0.00191 µM; with `Cc1c(-c2nnc(C3CCC3)s2)nc(-c2ccc(Cl)cc2Cl)n1-c1ccc(Cl)cc1` [Example 93, 2-(1-(4-Chlorophenyl)-2-(2,4-dichlorophenyl)-5-methyl-1H-imidazol-4-yl)-5-cyclobutyl-1,3,4-thiadiazole], 0.0423 µM. As to `CCc1c(-c2nnc(C3(c4ccc(Cl)cc4)CCC3)s2)nc(-c2ccc(Cl)cc2Cl)n1-c1ccc(Br)cc1` [Example 131, 2-(1-(4-Bromophenyl)-2-(2,4-dichlorophenyl)-5-ethyl-1H-imidazol-4-yl)-5-(1-(4-chlorophenyl)cyclobutyl)-1,3,4-thiadiazole], the IC50 was found to be 0.00479 µM. `CCc1c(-c2nnc(C(C)CC)o2)nc(-c2ccc(Cl)cc2Cl)n1-c1ccc(Cl)cc1` (stereo not shown) [Example 18, 2-sec-Butyl-5-(1-(4-chlorophenyl)-2-(2,4-dichlorophenyl)-5-ethyl-1H-imidazol-4-yl)-1,3,4-oxadiazole]: the IC50 was 0.0179 µM. As to `Cc1c(-c2nnc(C(C)(C)C)o2)nc(-c2ccc(Cl)cc2Cl)n1-c1ccc(Cl)cc1` [Example 1, 2-tert-Butyl-5-(1-(4-chlorophenyl)-2-(2,4-dichlorophenyl)-5-methyl-1H-imidazol-4-yl)-1,3,4-oxadiazole], the IC50 was found to be 0.0132 µM. The same measure, in the same setting: with `Cc1c(-c2ncc(C(C)(C)C)s2)nc(-c2ccc(Cl)cc2Cl)n1-c1ccc(Br)cc1` [Example 200, 2-(1-(4-Bromophenyl)-2-(2,4-dichlorophenyl)-5-methyl-1H-imidazol-4-yl)-5-tert-butylthiazole] the figure was 0.016 µM.
